Test results taken from article PMC4476799, “Englerin A Agonizes the TRPC4/C5 Cation Channels to Inhibit Tumor Cell Line Proliferation” (PLoS ONE, 2015).
Read-outs that look alike come from different tables or passages of the source.

System: cancer cell lines from the cancer cell line encyclopedia (CCLE)
Assay: Cell line profiling (CLiP) proliferation experiment
Format: cell-based
Details: Homo sapiens; for IC50: read-out: Crossing Point; for EC50: read-out: Inflection Point
Description: Compound profiling experiment and data analysis was performed as previously described. Data was imported and plotted using the Tibco Spotfire DXP application. Lines were categorized as sensitive, intermediate and refractory as follows: Amax<-40 & Inflection Point <2 ~ Sensitive, Amax>-20 & Inflection Point >10 ~ Refractory, all else were called Intermediate. Cancer Cell line HG-U133 Plus 2 data was processed and normalized as described. […] Five sets of refractory cell lines were generated from the pool of refractory cell lines trying to match the lineage composition of the set of sensitive cell lines. The limma package was used as previously described to perform the statistical comparison.

[1] = SNU1, cell line SNU-1, stomach, undifferentiated_adenocarcinoma
[2] = SNU-16, cell line SNU-16, stomach, undifferentiated_adenocarcinoma
[3] = SNU-475, cell line SNU-475, liver, hepatocellular_carcinoma
[4] = SNU-C1, SNU-C1 (large_intestine, adenocarcinoma)
[5] = ST486, ST486 (haematopoietic_and_lymphoid_tissue, Burkitt_lymphoma)
[6] = SU-DHL-4, SU-DHL-4 (haematopoietic_and_lymphoid_tissue, diffuse_large_B_cell_lymphoma)
[7] = SU-DHL-5, SU-DHL-5 (haematopoietic_and_lymphoid_tissue, diffuse_large_B_cell_lymphoma)
[8] = SU-DHL-8, SU-DHL-8 (haematopoietic_and_lymphoid_tissue, diffuse_large_B_cell_lymphoma)
[9] = SW48, SW48 (large_intestine, adenocarcinoma)
[10] = SW480, SW480 (large_intestine, adenocarcinoma)
[11] = SW1088, SW 1088 (central_nervous_system, NS)
[12] = SW1417, SW1417 (large_intestine, adenocarcinoma)
[13] = SW-620, SW620 (large_intestine, adenocarcinoma)
[14] = TE-11, TE-11 (oesophagus, squamous_cell_carcinoma)
[15] = TE-15, TE-15 (oesophagus, squamous_cell_carcinoma)
[16] = TOV112D, TOV-112D (ovary, endometrioid_carcinoma)
[17] = WSUDLCL2, WSU-DLCL2 cell line, haematopoietic_and_lymphoid_tissue, diffuse_large_B_cell_lymphoma
[18] = ZR-75-1, ZR-75-1 cell line, breast, ductal_carcinoma

## CC(C)[C@@]12C[C@@H](O)[C@@](C)(O1)[C@@H]1CC[C@@H](C)[C@H]1[C@@H]2OC(=O)/C=C/c1ccccc1 [Englerin B]
[1]
  IC50: > 30 µM
  EC50: 12.1 µM
SNU-16, SNU-16 cells
  EC50: 13.5 µM
[2]
  IC50: 14.1 µM
  EC50: 13.5 µM
SNU-182, SNU-182 (liver)
  IC50: > 30 µM
SNU-182, cell line SNU-182, liver, hepatocellular_carcinoma
  IC50: > 30 µM
SNU-449, SNU-449 (liver)
  IC50: 19.1 µM
SNU-449, cell line SNU-449, liver, hepatocellular_carcinoma
  IC50: 19.1 µM
SNU-475, cell line SNU-475 (liver, hepatocellular_carcinoma)
  IC50: > 30 µM
[3]
  IC50: > 30 µM
  EC50: 12.9 µM
[4]
  IC50: > 30 µM
  EC50: 14.8 µM
SNU-C1, SNU-C1 cells
  IC50: > 30 µM
  EC50: 14.8 µM
[5]
  IC50: 13.5 µM
  EC50: 13.5 µM
SU-DHL10, SU-DHL-10 (haematopoietic_and_lymphoid_tissue, diffuse_large_B_cell_lymphoma)
  IC50: 18.5 µM
[6]
  IC50: 20.5 µM
  EC50: 20.5 µM
[7]
  IC50: 14.7 µM
  EC50: 14.7 µM
[8]
  IC50: 14.6 µM
  EC50: 13.2 µM
[9]
  IC50: 29 µM
  EC50: 29 µM
SW480, SW480 (large_intestine)
  IC50: > 30 µM
[10]
  IC50: > 30 µM
  EC50: 8.92 µM
SW837, SW837 (large_intestine)
  IC50: > 30 µM
SW837, SW837 (large_intestine, adenocarcinoma)
  IC50: > 30 µM
SW948, SW948 (large_intestine)
  IC50: > 30 µM
SW948, SW948 (large_intestine, adenocarcinoma)
  IC50: > 30 µM
SW1088, SW 1088 (central_nervous_system)
  IC50: > 30 µM
[11]
  IC50: > 30 µM
  EC50: 2.41 µM
SW1353, SW 1353 (bone)
  IC50: > 30 µM
SW1353, SW 1353 (bone, NS)
  IC50: > 30 µM
  EC50: 15.2 µM
[12]
  IC50: 26.1 µM
  EC50: 26.1 µM
SW1573, SW 1573 (lung)
  IC50: > 30 µM
SW1573, SW 1573 (lung, squamous_cell_carcinoma)
  IC50: > 30 µM
SW1783, SW 1783 (central_nervous_system, astrocytoma_Grade_III)
  IC50: > 30 µM
SW1783, cell line SW 1783 (central_nervous_system, astrocytoma_Grade_III)
  IC50: > 30 µM
SW1990, SW 1990 (pancreas)
  IC50: > 30 µM
SW1990, SW 1990 (pancreas, ductal_carcinoma)
  IC50: > 30 µM
[13]
  IC50: 12.8 µM
  EC50: 11.9 µM
T47D, T-47D (breast)
  IC50: > 30 µM
T47D, T-47D (breast, ductal_carcinoma)
  IC50: > 30 µM
T98G, T98G (central_nervous_system)
  IC50: > 30 µM
T98G, T98G (central_nervous_system, astrocytoma_Grade_IV)
  IC50: > 30 µM
TE-10, TE-10 (oesophagus)
  IC50: > 30 µM
TE-10, TE-10 (oesophagus, squamous_cell_carcinoma)
  IC50: > 30 µM
TE-11, TE-11 (oesophagus)
  IC50: 13.7 µM
[14]
  IC50: 13.7 µM
  EC50: 13.5 µM
[15]
  IC50: 26 µM
  EC50: 26 µM
THP-1, THP-1 (haematopoietic_and_lymphoid_tissue, acute_myeloid_leukaemia)
  IC50: 17.9 µM
TOV21G, TOV-21G (ovary, clear_cell_carcinoma)
  IC50: 21.8 µM
[16]
  IC50: 19.5 µM
  EC50: 21.5 µM
U-118-MG, U-118 MG (central_nervous_system, astrocytoma)
  IC50: > 30 µM
U-118-MG, cell line U-118 MG
  IC50: > 30 µM
U-251, U-251 MG (central_nervous_system)
  IC50: > 30 µM
U-251, U-251 MG (central_nervous_system, astrocytoma)
  IC50: > 30 µM
U-937, U-937 (haematopoietic_and_lymphoid_tissue, malignant_histiocytosis)
  IC50: 14.6 µM
UACC-62, UACC-62 (skin)
  IC50: > 30 µM
UACC-62, UACC-62 cell line, skin, NS
  IC50: > 30 µM
UACC-257, UACC-257 (skin, NS)
  IC50: 19.8 µM
UMUC3, UM-UC-3 cell line, urinary_tract, transitional_cell_carcinoma
  IC50: 25.6 µM
VM-CUB-1, VM-CUB1 cell line, urinary_tract, transitional_cell_carcinoma
  IC50: 18.9 µM
WM 266-4, WM-266-4 (skin)
  IC50: > 30 µM
WM 266-4, WM-266-4 cell line, skin, NS
  IC50: > 30 µM
WM793, WM-793 (skin)
  IC50: > 30 µM
WM793, WM-793 cell line, skin, NS
  IC50: > 30 µM
WM-115, WM-115 (skin)
  IC50: > 30 µM
WM-115, WM-115 cell line, skin, NS
  IC50: > 30 µM
[17]
  IC50: 14.2 µM
  EC50: 14.2 µM
YAPC, YAPC (pancreas)
  IC50: > 30 µM
YAPC, YAPC cell line, pancreas, NS
  IC50: > 30 µM
YKG-1, YKG1 (central_nervous_system)
  IC50: > 30 µM
YKG-1, YKG1 cell line, central_nervous_system, astrocytoma_Grade_IV
  IC50: > 30 µM
Z-138, Z-138 (haematopoietic_and_lymphoid_tissue)
  IC50: 15.2 µM
Z-138, Z-138 cell line, haematopoietic_and_lymphoid_tissue, mantle_cell_lymphoma
  IC50: 15.2 µM
[18]
  IC50: 21.1 µM
  EC50: 12.9 µM
ZR-75-30, ZR-75-30 (breast)
  IC50: > 30 µM
